# From patent US12480944B2, “Detection and analysis of cells” (First Light Diagnostics, Inc., priority 2018, dated 2025)
# Read-outs that look alike come from different tables or passages of the source.
# Tests used:
# K. pneumoniae = test system: K. pneumoniae; design: key: previously determined antibiotic resistance (shown with “X”); “IR” = Intrinsically resistant; settings: cited from earlier work
# P. aeruginosa = test system: P. aeruginosa; design: key: previously determined antibiotic resistance (shown with “X”); “IR” = Intrinsically resistant; settings: cited from earlier work
# P. mirabilis = test system: P. mirabilis; design: key: previously determined antibiotic resistance (shown with “X”); “IR” = Intrinsically resistant; settings: cited from earlier work
# E. coli = test system: E. coli; design: key: previously determined antibiotic resistance (shown with “X”); “IR” = Intrinsically resistant; settings: cited from earlier work
# K. oxytoca = test system: K. oxytoca; design: key: previously determined antibiotic resistance (shown with “X”); “IR” = Intrinsically resistant; settings: cited from earlier work
# [1] = test system: K. pneumonaie strain in clinical urine sample BIUR0084; assay: Automated MultiPath AST cartridge on clinical urine specimen, Example 8; assay type: cell-based; settings: clinical urine BIUR0084 (K. pneumoniae), fold growth value of 2; for growth call at all antibiotic concentrations: 2 concentrations; for sensitive/resistant call by MulitPath: 4 h growth at 35° C., matched CLSI BMD
# [2] = strain K. pneumoniae ATCC 13883
# [3] = strain P. aeruginosa ATCC 27853
Molecule,previously determined antibiotic resistance (K. pneumoniae; [2]),previously determined antibiotic resistance (K. pneumoniae; strain K. pneumoniae CDC0010),previously determined antibiotic resistance (K. pneumoniae; strain K. pneumoniae CDC0016),previously determined antibiotic resistance (K. pneumoniae; strain K. pneumoniae CDC0126),previously determined antibiotic resistance (P. aeruginosa; [3]),previously determined antibiotic resistance (P. aeruginosa; strain P. aeruginosa CDC0105),previously determined antibiotic resistance (P. aeruginosa; strain P. aeruginosa CDC0111),previously determined antibiotic resistance (P. aeruginosa; strain P. aeruginosa CDC0242),previously determined antibiotic resistance (P. aeruginosa; strain P. aeruginosa CDC0251),previously determined antibiotic resistance (P. aeruginosa; strain P. aeruginosa CDC0253),previously determined antibiotic resistance (P. mirabilis; strain P. mirabilis ATCC 7002),previously determined antibiotic resistance (P. mirabilis; strain P. mirabilis CDC0029),previously determined antibiotic resistance (P. mirabilis; strain P. mirabilis CDC0059),previously determined antibiotic resistance (P. mirabilis; strain P. mirabilis CDC0155),previously determined antibiotic resistance (P. mirabilis; strain P. mirabilis CDC0156),previously determined antibiotic resistance (P. mirabilis; strain P. mirabilis CDC0159),previously determined antibiotic resistance (E. coli; strain E. coli ATCC 25922),previously determined antibiotic resistance (K. oxytoca; strain K. oxytoca CDC0028),previously determined antibiotic resistance (K. oxytoca; strain K. oxytoca CDC0071),previously determined antibiotic resistance (K. oxytoca; strain K. oxytoca CDC0147),also measured
CC(C)(O/N=C(\C(=O)N[C@@H]1C(=O)N2C(C(=O)[O-])=C(C[n+]3ccccc3)CS[C@H]12)c1csc(N)n1)C(=O)O [Ceftazidime],X,X,X,X,X,X,X,X,X,X,X,X,X,X,X,X,X,X,X,X,previously determined antibiotic resistance (K. pneumoniae; strain K. pneumoniae CDC0041): X; previously determined antibiotic resistance (K. pneumoniae; strain K. pneumoniae CDC0107): X; previously determined antibiotic resistance (K. pneumoniae; strain K. pneumoniae CDC0160): X; previously determined antibiotic resistance (E. coli; strain E. coli CDC0020): X; previously determined antibiotic resistance (E. coli; strain E. coli CDC0067): X; previously determined antibiotic resistance (E. coli; strain E. coli CDC0084): X; previously determined antibiotic resistance (E. coli; strain E. coli CDC0086): X; previously determined antibiotic resistance (E. coli; strain E. coli CDC0350): X
Cc1nnc(SCC2=C(C(=O)O)N3C(=O)[C@@H](NC(=O)Cn4cnnn4)[C@H]3SC2)s1 [Cefazolin],,,,,,,,,,,,,,,,,,,,,growth call at all antibiotic concentrations [1]: growth; sensitive/resistant call by MulitPath [1]: resistant
Trimethoprim/Sulfamethoxazole,X,X,X,X,IR,IR,IR,IR,IR,IR,X,X,X,X,X,X,X,X,X,X,previously determined antibiotic resistance (K. pneumoniae; strain K. pneumoniae CDC0107): X; previously determined antibiotic resistance (K. pneumoniae; strain K. pneumoniae CDC0117): X; previously determined antibiotic resistance (P. aeruginosa; strain P. aeruginosa CDC0232): IR; previously determined antibiotic resistance (P. aeruginosa; strain P. aeruginosa CDC0247): IR; previously determined antibiotic resistance (P. aeruginosa; strain P. aeruginosa CDC0259): IR; previously determined antibiotic resistance (P. aeruginosa; strain P. aeruginosa CDC0261): IR; previously determined antibiotic resistance (P. aeruginosa; strain P. aeruginosa CDC0262): IR; previously determined antibiotic resistance (E. coli; strain E. coli BAA-2469): X; previously determined antibiotic resistance (E. coli; strain E. coli BAA-2471): X; previously determined antibiotic resistance (E. coli; strain E. coli CDC0017): X; previously determined antibiotic resistance (E. coli; strain E. coli CDC0019): X; previously determined antibiotic resistance (E. coli; strain E. coli CDC0084): X; growth call at all antibiotic concentrations [1]: growth; sensitive/resistant call by MulitPath [1]: resistant
C[C@@H](O)[C@H]1C(=O)N2C(C(=O)O)=C(S[C@@H]3CN[C@H](C(=O)N(C)C)C3)[C@H](C)[C@H]12 [Meropenem],X,X,X,,,X,X,X,,,X,X,X,X,X,X,X,X,X,X,previously determined antibiotic resistance (K. pneumoniae; strain K. pneumoniae CDC0034): X; previously determined antibiotic resistance (K. pneumoniae; strain K. pneumoniae CDC0043): X; previously determined antibiotic resistance (K. pneumoniae; strain K. pneumoniae CDC0076): X; previously determined antibiotic resistance (K. pneumoniae; strain K. pneumoniae CDC0080): X; previously determined antibiotic resistance (P. aeruginosa; strain P. aeruginosa CDC0232): X; previously determined antibiotic resistance (P. aeruginosa; strain P. aeruginosa CDC0247): X; previously determined antibiotic resistance (E. coli; strain E. coli CDC0001): X; previously determined antibiotic resistance (E. coli; strain E. coli CDC0006): X; previously determined antibiotic resistance (E. coli; strain E. coli CDC0020): X; previously determined antibiotic resistance (E. coli; strain E. coli CDC0085): X; previously determined antibiotic resistance (E. coli; strain E. coli CDC0114): X
O=C(O)c1cn(C2CC2)c2cc(N3CCNCC3)c(F)cc2c1=O [Ciprofloxacin],X,,X,X,X,,,,X,X,X,X,X,X,X,X,X,X,X,X,previously determined antibiotic resistance (K. pneumoniae; strain K. pneumoniae CDC0034): X; previously determined antibiotic resistance (K. pneumoniae; strain K. pneumoniae CDC0076): X; previously determined antibiotic resistance (K. pneumoniae; strain K. pneumoniae CDC0117): X; previously determined antibiotic resistance (P. aeruginosa; strain P. aeruginosa CDC0259): X; previously determined antibiotic resistance (P. aeruginosa; strain P. aeruginosa CDC0261): X; previously determined antibiotic resistance (P. aeruginosa; strain P. aeruginosa CDC0262): X; previously determined antibiotic resistance (E. coli; strain E. coli BAA-2452): X; previously determined antibiotic resistance (E. coli; strain E. coli BAA-2469): X; previously determined antibiotic resistance (E. coli; strain E. coli BAA-2471): X; previously determined antibiotic resistance (E. coli; strain E. coli CDC0017): X; previously determined antibiotic resistance (E. coli; strain E. coli CDC0019): X
